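Step 1: Grow cells in 96-well plates. Step 2: Expose to compound for 48 hours at 5 concentrations. Step 3: Interpolate endpoints linearly; if unreached, use highest concentration. GI50 = concentration required for 50% inhibition of growth. At the TGI there is no net growth.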
Key:
Assay in all cases: NCI-60 cell line screen, 48 h
[1] = tested on: CCRF-CEM leukemia
[2] = tested on: A498 renal
[3] = tested on: RPMI-8226 leukemia
[4] = tested on: HOP-62 NSCLC
[5] = tested on: NCI-H460 lung
[6] = tested on: SF-268 CNS
[7] = tested on: HCT-116 colon
[8] = tested on: HL-60(TB) leukemia
[9] = tested on: OVCAR-5 ovarian
[10] = tested on: A549 NSCLC

Structure (SMILES) | TGI [1] [µM] | TGI [2] [µM] | TGI [3] [µM] | TGI [4] [µM] | TGI [5] [µM] | TGI [6] [µM] | TGI [7] [µM] | TGI [8] [µM] | TGI [9] [µM] | TGI [10] [µM] | GI50 [1] [µM] | GI50 [2] [µM] | GI50 [3] [µM] | GI50 [4] [µM] | GI50 [5] [µM] | GI50 [6] [µM] | GI50 [7] [µM] | GI50 [8] [µM] | GI50 [9] [µM] | GI50 [10] [µM]
O=C(CCc1ccccc1)ON1C(=S)C(c2ccccc2)(c2ccccc2)N=C1Sc1ccccc1 | > 100 | > 100 | 74.6 | > 100 | > 100 | > 100 | > 100 | > 100 | > 100 | > 100 |  |  |  |  |  |  |  |  |  | 
Cc1ccc2c(c1)C(=O)C(C1OC(=O)c3ccccc31)C2 (stereo unspecified) | > 100 | > 100 | > 100 | > 100 | > 100 | > 100 | > 100 | > 100 | > 100 | > 100 |  |  |  |  |  |  |  |  |  | 
Cn1c(N/N=C/c2ccccc2)nc(-c2ccc([N+](=O)[O-])cc2)c(C#N)c1=O | > 100 | > 100 | > 100 | > 100 | > 100 | > 100 | > 100 | 48.3 | > 100 | > 100 |  |  |  |  |  |  |  |  |  | 
CCOC(=O)C1=C(C)N(c2ccc(OC)cc2)C2(O)C=CC(=O)C3=C(O)c4ccccc4C(=O)C312 (stereo unspecified) | 15.9 | 27 | 10.9 | 30.1 | 28 | 9.82 | 23.4 | 21.6 | 33.4 | 36.2 |  |  |  |  |  |  |  |  |  | 
O=C(NNc1nc(-c2ccccc2)cs1)C(F)(F)F | > 100 | 88.2 | 47 | > 100 | > 100 | > 100 | > 100 | > 100 | > 100 | > 100 |  |  |  |  |  |  |  |  |  | 
Cc1c(/C=N/N(C)C)oc2c1cc(O)c1ncccc12 | 7.26 | 82 | > 100 | > 100 | 41 | > 100 | > 100 | 6.46 | > 100 | > 100 |  |  |  |  |  |  |  |  |  | 
C/C1=C\C=C(\C(C)C)CC/C(C(=O)O)=C\CC/C(C)=C/CC1 | 41.8 | 34.1 | 42.2 | 48 | 34.5 | > 100 | 29.8 | 56.8 | 78 | > 100 |  |  |  |  |  |  |  |  |  | 
NC(Cc1ccc(S(=O)(=O)O)cc1)C(=O)NC(Cc1ccc(S(=O)(=O)O)cc1)C(=O)O (stereo unspecified) | > 100 | > 100 | > 100 | > 100 | > 100 | > 100 | > 100 | > 100 | > 100 | > 100 |  |  |  |  |  |  |  |  |  | 
CC(=N\N)/C(C)=N/N=C(C)/C(C)=N/N=C(C)/C(C)=N/N | > 100 | > 100 | > 100 | > 100 | > 100 | > 100 | > 100 | > 100 | > 100 | > 100 |  |  |  |  |  |  |  |  |  | 
C(=C\N1CCCCC1)/c1nnnn1-c1ccccc1 | 61.1 | > 100 | 59.6 | > 100 | > 100 | 84 | > 100 | 37.7 | > 100 | > 100 |  |  |  |  |  |  |  |  |  | 
O=C1Nc2ccccc2/C1=c1\[nH]c(=O)/c(=C\c2ccc(OCc3ccccc3)cn2)[nH]c1=O | > 100 | 77.9 | > 100 | 65.7 | > 100 | > 100 | > 100 | > 100 | > 100 | > 100 |  |  |  |  |  |  |  |  |  | 
CC(C)C1N(C)c2ccc(Cl)cc2[C@H]2c3ccccc3CCN12 (stereo partly specified) | > 100 | > 100 | 79.8 | > 100 | > 100 | > 100 | > 100 | > 100 | > 100 | > 100 |  |  |  |  |  |  |  |  |  | 
CN(C)CCNC(=O)c1cccc2c1Oc1c(cccc1[N+](=O)[O-])O2 | 16.4 | 4.78 | > 100 | 2.48 | 2.66 | 12.2 | 3.4 | > 100 | 8.14 | 3.42 |  |  |  |  |  |  |  |  |  | 
CCn1c(SCC(=O)NNC(=S)NC)nc2ccccc2c1=O | > 100 | > 100 | > 100 | > 100 | 45.7 | > 100 | > 100 | > 100 | > 100 | > 100 |  |  |  |  |  |  |  |  |  | 
COc1cc2nc(-c3cccs3)[nH]c(=O)c2cc1OC | > 100 | > 100 | > 100 | > 100 | > 100 | > 100 | > 100 | > 100 | > 100 | > 100 |  |  |  |  |  |  |  |  |  | 
O=C(CCc1ccccc1)On1c(-c2ccccc2)nc2ccccc2c1=S | > 100 | > 100 | > 100 | 31.5 | > 100 | > 100 | 8.81 | > 100 | 50.5 | > 100 |  |  |  |  |  |  |  |  |  | 
CCN(CC)c1ccc2cc(C(=O)Nc3ccccn3)c(=N)oc2c1 | > 100 | > 100 | > 100 | 52.1 | > 100 | > 100 | > 100 | > 100 | > 100 | > 100 |  |  |  |  |  |  |  |  |  | 

Structure (SMILES) | TGI [1] [µM] | TGI [2] [µM] | TGI [3] [µM] | TGI [4] [µM] | TGI [5] [µM] | TGI [6] [µM] | TGI [7] [µM] | TGI [8] [µM] | TGI [9] [µM] | TGI [10] [µM] | GI50 [1] [µM] | GI50 [2] [µM] | GI50 [3] [µM] | GI50 [4] [µM] | GI50 [5] [µM] | GI50 [6] [µM] | GI50 [7] [µM] | GI50 [8] [µM] | GI50 [9] [µM] | GI50 [10] [µM]
CNc1ncc(-c2nnnn2-c2ccccc2)c(CN(C)C)n1 | > 100 | > 100 | > 100 | > 100 | > 100 | > 100 | > 100 | > 100 | > 100 | > 100 |  |  |  |  |  |  |  |  |  | 
O=c1[nH]cnc2c1nnn2CCCCCCCCCCCCn1nnc2c(=O)[nH]cnc21 | > 100 | 53.6 | > 100 | 54 | > 100 | 79.9 | > 84.1 | > 100 | > 100 | > 100 |  |  |  |  |  |  |  |  |  | 
CN(C)c1cccc(NC2=NCCO2)c1 | > 100 | > 100 | > 100 | > 100 | > 100 | > 100 | > 100 | 50.5 | > 100 | > 100 |  |  |  |  |  |  |  |  |  | 
C[Si](C)(C)C1=C([Si](C)(C)C)C(Cl)(Cl)C1=O | 1.42 | 29.8 | 3.99 | 41.4 | 32.2 | 21.1 | 7.02 | 1.53 | 20 | 49.7 |  |  |  |  |  |  |  |  |  | 
c1cnc(N2CCN(Cc3c[nH]c4ccccc34)CC2)nc1 | > 100 | > 100 | 63.7 | > 100 | > 100 | > 100 | > 100 | > 100 | > 100 | > 100 |  |  |  |  |  |  |  |  |  | 
CC(=O)[CH-]C(=O)c1ccccc1.CC(=O)[CH-]C(=O)c1ccccc1.C[C@]12CCC(=O)C=C1CC[C@@H]1C2CC[C@@]2(C)C1CC[C@]2(C)[O-].C[C@]12CCC(=O)C=C1CC[C@@H]1C2CC[C@@]2(C)C1CC[C@]2(C)[O-].Cl.[Ti+4] (stereo partly specified) | > 100 | 31.1 | > 100 | 62.7 | 49.9 | 75.2 | > 100 | 13.1 | > 100 | 40.3 | 9.78 | 15.3 | 15.4 | 24.1 | 16.4 | 20.7 | 22.2 | 2.87 | 16.5 | 16.1
COC(=O)c1ccc(Nc2nc3nc[nH]c3c(=O)[nH]2)cc1 | > 100 | > 100 | > 100 | > 100 | > 100 | > 100 | > 100 | > 100 | > 100 | > 100 |  |  |  |  |  |  |  |  |  | 
C[C@H]1S[C@H](c2c(Cl)cccc2Cl)N2Cc3ccccc3N=C12 | > 100 | 66 | > 100 | 32.6 | 32.4 | 32.5 | 16.3 | > 100 | 37.5 | 40.3 |  |  |  |  |  |  |  |  |  | 
Nc1c(Cl)ncnc1NCCCNc1ncnc(Cl)c1N | > 100 | > 100 | > 100 | > 100 | > 100 | > 100 | > 100 | > 100 | > 100 | > 100 |  |  |  |  |  |  |  |  |  | 
COc1cccc(/C=N/[N-]C(N)=O)c1[O-].[Cu+2].[OH3+].c1ccc(-c2ccccn2)nc1 | > 95.6 | 35.8 | > 100 | > 67.7 | > 100 | > 100 | > 63 | > 79.1 | > 100 | > 100 |  |  |  |  |  |  |  | 40.6 |  | 
O=C(NNc1ccccc1)/C(=C/c1ccc2c(c1)OCO2)NC(=O)c1ccccc1 | > 100 | > 100 | > 100 | > 100 | > 100 | > 100 | > 100 | > 100 | > 100 | > 100 |  |  |  |  |  |  |  |  |  | 
O=C1Nc2ccccc2Nc2ccncc21 | > 100 | > 100 | > 100 | > 100 | > 100 | > 100 | > 100 | > 100 | > 100 | > 100 |  |  |  |  |  |  |  |  |  | 
O=C1C(CN2CCOCC2)CCCC1CN1CCOCC1 (stereo unspecified) | 4.03 | 42.3 | 2.34 | > 100 | 49 | 43.3 | 2.83 | 1.78 | 36.6 | 55.4 |  |  |  |  |  |  |  |  |  | 
COc1ccc(/C=N/n2cnc3[nH]c(C)c(Cc4ccccc4)c3c2=N)cc1 | > 100 | > 100 | > 100 | > 100 | > 100 | > 100 | > 100 | > 100 | > 100 | > 100 |  |  |  |  |  |  |  |  |  | 
CCOc1cc(NC(C)=O)ccc1C(=O)NN1C(=O)CSC1c1ccccc1 (stereo unspecified) | > 100 | > 100 | > 100 | > 100 | > 100 | > 100 | > 100 | > 100 | > 100 | > 100 |  |  |  |  |  |  |  |  |  | 
O=[N+]([O-])c1ccc(O)c(/C=N/NC(=S)N2CCCCC2)c1 | > 82 | > 44.2 | > 52.4 | > 100 | 38.3 | 24.6 | 40.3 | > 42.1 | > 100 | > 100 |  |  |  |  |  |  |  |  |  | 

Source: PubChem BioAssay (NCI)
